Reference: the NIST ThermoML archive (doi:10.1016/j.fluid.2018.04.025)
Numbers after ± are expanded uncertainties.

Experiments:
[1] = xn = mol fraction of the nth substance listed; settings: 101 kPa, Liquid, x2 = 0; for viscosity: Falling or rolling sphere viscometry; for speed of sound: Frequency=3 MHz, Sing-around technique in a fixed-path interferometer; for mass density: Vibrating tube method
[2] = 101.3 kPa, Liquid; for viscosity: Falling or rolling sphere viscometry; for speed of sound: Frequency=3 MHz, Sing-around technique in a fixed-path interferometer; for mass density: Vibrating tube method

## CCCCO [butan-1-ol] + CCCC[n+]1ccn(C)c1.O=S(=O)([N-]S(=O)(=O)C(F)(F)F)C(F)(F)F
[1]; 298.15 K
  viscosity: 2.57 ± 0.6 mPa·s
  speed of sound: 1242.4 ± 1 m/s
  mass density: 806.704 ± 0.17 kg/m3
[1]; 303.15 K
  viscosity: 2.26 ± 0.6 mPa·s
  speed of sound: 1225.5 ± 1 m/s
  mass density: 802.704 ± 0.17 kg/m3
[1]; 308.15 K
  viscosity: 1.99 ± 0.6 mPa·s
  speed of sound: 1208.7 ± 1 m/s
  mass density: 798.992 ± 0.17 kg/m3
[1]; 313.15 K
  viscosity: 1.77 ± 0.6 mPa·s
  speed of sound: 1192 ± 1 m/s
  mass density: 795.065 ± 0.17 kg/m3
[1]; 318.15 K
  viscosity: 1.58 ± 0.6 mPa·s
  speed of sound: 1175.4 ± 1 m/s
  mass density: 791.094 ± 0.18 kg/m3
[1]; 323.15 K
  viscosity: 1.41 ± 0.6 mPa·s
  speed of sound: 1158.8 ± 1 m/s
  mass density: 787.075 ± 0.18 kg/m3

## CCCC[n+]1ccn(C)c1.O=S(=O)([N-]S(=O)(=O)C(F)(F)F)C(F)(F)F
[2]; 298.15 K
  viscosity: 51.15 ± 0.74 mPa·s
  speed of sound: 1227.3 ± 2.1 m/s
  mass density: 1436.02 ± 1.9 kg/m3
[2]; 303.15 K
  viscosity: 41.88 ± 0.74 mPa·s
  speed of sound: 1216.3 ± 2.1 m/s
  mass density: 1431.22 ± 1.9 kg/m3
[2]; 308.15 K
  viscosity: 34.58 ± 0.67 mPa·s
  speed of sound: 1205.5 ± 2.1 m/s
  mass density: 1426.43 ± 1.8 kg/m3
[2]; 313.15 K
  viscosity: 28.98 ± 0.62 mPa·s
  speed of sound: 1194.7 ± 2.1 m/s
  mass density: 1421.64 ± 1.8 kg/m3
[2]; 318.15 K
  viscosity: 24.6 ± 0.59 mPa·s
  speed of sound: 1184 ± 2.1 m/s
  mass density: 1416.84 ± 1.8 kg/m3
[2]; 323.15 K
  viscosity: 21.1 ± 0.57 mPa·s
  speed of sound: 1173.5 ± 2.1 m/s
  mass density: 1411.89 ± 1.8 kg/m3

## CCCO [propan-1-ol] + CCCC[n+]1ccn(C)c1.O=S(=O)([N-]S(=O)(=O)C(F)(F)F)C(F)(F)F
[1]; 298.15 K
  viscosity: 1.89 ± 0.6 mPa·s
  speed of sound: 1206.6 ± 0.86 m/s
  mass density: 799.924 ± 0.14 kg/m3
[1]; 303.15 K
  viscosity: 1.69 ± 0.6 mPa·s
  speed of sound: 1189.5 ± 0.86 m/s
  mass density: 795.888 ± 0.14 kg/m3
[1]; 308.15 K
  viscosity: 1.51 ± 0.6 mPa·s
  speed of sound: 1172.5 ± 0.85 m/s
  mass density: 791.815 ± 0.14 kg/m3
[1]; 313.15 K
  viscosity: 1.35 ± 0.6 mPa·s
  speed of sound: 1155.6 ± 0.85 m/s
  mass density: 787.7 ± 0.14 kg/m3
[1]; 318.15 K
  viscosity: 1.22 ± 0.6 mPa·s
  speed of sound: 1138.8 ± 0.84 m/s
  mass density: 783.538 ± 0.15 kg/m3
[1]; 323.15 K
  viscosity: 1.09 mPa·s
  speed of sound: 1122 ± 0.84 m/s
  mass density: 779.321 ± 0.15 kg/m3
